Data taken from patent US20230085307A1, “PYRIDAZINONE COMPOUND AND HERBICIDE” (NISSAN CHEMICAL CORPORATION, priority 2019, published 2023).

Legend:
redroot pigweed [1] = experiment: Test Example 4: herbicidal effect by soil treatment (Table 19, symbol N); assay type: in vivo, redroot pigweed (Amaranthus retroflexus); details: amount of applied herbicide 320 g/ha
Outline: (§1)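 Step 1: sow seeds in sterilized diluvial soil, cover ~1.5 cm. Step 2: spray diluted emulsion onto soil surface at predetermined rate. Step 3: greenhouse, 25–30° C, three weeks. Step 4: grade effect on each plant by earlier criteria.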

lambsquarters [2] = experiment: Test Example 5: herbicidal effect by foliage application, plastic box (Table 20, symbol O); assay type: in vivo, lambsquarters (Chenopodium album); details: 320 g/ha, foliage application after 14-day growth, evaluated three weeks after application
Outline: (§2)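 Foliar spray test: emulsion formulation diluted in water to a set application rate, sprayed onto 14-day-old plants raised in diluvial soil at 25° C to 30° C under glass. Both herbicidal effect and crop effect rated visually three weeks later.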

chickweed [3] = experiment: Test Example 5: herbicidal effect by foliage application, plastic box (Table 20, symbol P); assay type: in vivo, common chickweed (Stellaria media); details: 320 g/ha, foliage application after 14-day growth, evaluated three weeks after application
Outline: as §2

blackgrass [4] = experiment: Test Example 4: herbicidal effect by soil treatment (Table 19, symbol J); assay type: in vivo, blackgrass (Alopecurus myosuroides); details: amount of applied herbicide 320 g/ha
Outline: as §1

rice flat sedge = experiment: Test Example 3: herbicidal effect by foliage application, Wagner pot (Table 18, symbol E); assay type: in vivo, rice flat sedge (Cyperus iria); details: 320 g/ha
Outline: (§3)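 Plants were sown in alluvial soil held under 0.1–0.5 cm standing water and grown 14 days in a greenhouse at 25–30 °C. An emulsifiable formulation, water-diluted to the set dose, was then sprayed onto the foliage, and effects were scored three weeks later using previously defined criteria.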

blackgrass [5] = experiment: Test Example 5: herbicidal effect by foliage application, plastic box (Table 20, symbol J); assay type: in vivo, blackgrass (Alopecurus myosuroides); details: 320 g/ha, foliage application after 14-day growth, evaluated three weeks after application
Outline: as §2

persian speedwell [6] = experiment: Test Example 5: herbicidal effect by foliage application, plastic box (Table 20, symbol R); assay type: in vivo, Persian speedwell (Veronica persica); details: 320 g/ha, foliage application after 14-day growth, evaluated three weeks after application
Outline: as §2

velvetleaf [7] = experiment: Test Example 4: herbicidal effect by soil treatment (Table 19, symbol M); assay type: in vivo, velvetleaf (Abutilon theophrasti); details: amount of applied herbicide 320 g/ha
Outline: as §1

wild oat [8] = experiment: Test Example 5: herbicidal effect by foliage application, plastic box (Table 20, symbol I); assay type: in vivo, wild oat (Avena fatua); details: 320 g/ha, foliage application after 14-day growth, evaluated three weeks after application
Outline: as §2

wild oat [9] = experiment: Test Example 4: herbicidal effect by soil treatment (Table 19, symbol I); assay type: in vivo, wild oat (Avena fatua); details: amount of applied herbicide 320 g/ha
Outline: as §1

Italian ryegrass [10] = experiment: Test Example 4: herbicidal effect by soil treatment (Table 19, symbol K); assay type: in vivo, Italian ryegrass (Lolium multiflorum); details: amount of applied herbicide 320 g/ha
Outline: as §1

southern crabgrass [11] = experiment: Test Example 5: herbicidal effect by foliage application, plastic box (Table 20, symbol F); assay type: in vivo, southern crabgrass (Digitaria ciliaris); details: 320 g/ha, foliage application after 14-day growth, evaluated three weeks after application
Outline: as §2

Italian ryegrass [12] = experiment: Test Example 5: herbicidal effect by foliage application, plastic box (Table 20, symbol K); assay type: in vivo, Italian ryegrass (Lolium multiflorum); details: 320 g/ha, foliage application after 14-day growth, evaluated three weeks after application
Outline: as §2

barnyard grass [13] = experiment: Test Example 5: herbicidal effect by foliage application, plastic box (Table 20, symbol H); assay type: in vivo, barnyard grass (Echinochloa crus-galli); details: 320 g/ha, foliage application after 14-day growth, evaluated three weeks after application
Outline: as §2

barnyard grass [14] = experiment: Test Example 3: herbicidal effect by foliage application, Wagner pot (Table 18, symbol H); assay type: in vivo, barnyard grass (Echinochloa crus-galli); details: 320 g/ha
Outline: as §3

redroot pigweed [15] = experiment: Test Example 5: herbicidal effect by foliage application, plastic box (Table 20, symbol N); assay type: in vivo, redroot pigweed (Amaranthus retroflexus); details: 320 g/ha, foliage application after 14-day growth, evaluated three weeks after application
Outline: as §2

southern crabgrass [16] = experiment: Test Example 4: herbicidal effect by soil treatment (Table 19, symbol F); assay type: in vivo, southern crabgrass (Digitaria ciliaris); details: amount of applied herbicide 320 g/ha
Outline: as §1

windgrass [17] = experiment: Test Example 5: herbicidal effect by foliage application, plastic box (Table 20, symbol L); assay type: in vivo, windgrass (Apera spica-venti); details: 320 g/ha, foliage application after 14-day growth, evaluated three weeks after application
Outline: as §2

Chinese sprangletop = experiment: Test Example 3: herbicidal effect by foliage application, Wagner pot (Table 18, symbol D); assay type: in vivo, chinese sprangletop (Leptochloa chinensis); details: 320 g/ha
Outline: as §3

green foxtail [18] = experiment: Test Example 5: herbicidal effect by foliage application, plastic box (Table 20, symbol G); assay type: in vivo, green foxtail (Setaria viridis); details: 320 g/ha, foliage application after 14-day growth, evaluated three weeks after application
Outline: as §2

green foxtail [19] = experiment: Test Example 4: herbicidal effect by soil treatment (Table 19, symbol G); assay type: in vivo, green foxtail (Setaria viridis); details: amount of applied herbicide 320 g/ha
Outline: as §1

persian speedwell [20] = experiment: Test Example 4: herbicidal effect by soil treatment (Table 19, symbol R); assay type: in vivo, Persian speedwell (Veronica persica); details: amount of applied herbicide 320 g/ha
Outline: as §1

barnyard grass [21] = experiment: Test Example 4: herbicidal effect by soil treatment (Table 19, symbol H); assay type: in vivo, barnyard grass (Echinochloa crus-galli); details: amount of applied herbicide 320 g/ha
Outline: as §1

velvetleaf [22] = experiment: Test Example 5: herbicidal effect by foliage application, plastic box (Table 20, symbol M); assay type: in vivo, velvetleaf (Abutilon theophrasti); details: 320 g/ha, foliage application after 14-day growth, evaluated three weeks after application
Outline: as §2

lambsquarters [23] = experiment: Test Example 4: herbicidal effect by soil treatment (Table 19, symbol O); assay type: in vivo, lambsquarters (Chenopodium album); details: amount of applied herbicide 320 g/ha
Outline: as §1

windgrass [24] = experiment: Test Example 4: herbicidal effect by soil treatment (Table 19, symbol L); assay type: in vivo, windgrass (Apera spica-venti); details: amount of applied herbicide 320 g/ha
Outline: as §1

chickweed [25] = experiment: Test Example 4: herbicidal effect by soil treatment (Table 19, symbol P); assay type: in vivo, common chickweed (Stellaria media); details: amount of applied herbicide 320 g/ha
Outline: as §1

Compound	Herbicidal effect by soil treatment, N: redroot pigweed (redroot pigweed [1])	herbicidal effect on O: lambsquarters (evaluation grade 0-5) (lambsquarters [2])	herbicidal effect on P: chickweed (evaluation grade 0-5) (chickweed [3])	Herbicidal effect by soil treatment, J: blackgrass (blackgrass [4])	herbicidal effect on rice flat sedge (E) (rice flat sedge)	herbicidal effect on J: blackgrass (evaluation grade 0-5) (blackgrass [5])	herbicidal effect on R: persian speedwell (evaluation grade 0-5) (persian speedwell [6])	Herbicidal effect by soil treatment, M: velvetleaf (velvetleaf [7])	herbicidal effect on I: wild oat (evaluation grade 0-5) (wild oat [8])	Herbicidal effect by soil treatment, I: wild oat (wild oat [9])	Herbicidal effect by soil treatment, K: Italian ryegrass (Italian ryegrass [10])	herbicidal effect on F: southern crabgrass (evaluation grade 0-5) (southern crabgrass [11])	herbicidal effect on K: Italian ryegrass (evaluation grade 0-5) (Italian ryegrass [12])	herbicidal effect on H: barnyard grass (evaluation grade 0-5) (barnyard grass [13])	herbicidal effect on barnyard grass (H) (barnyard grass [14])	herbicidal effect on N: redroot pigweed (evaluation grade 0-5) (redroot pigweed [15])	Herbicidal effect by soil treatment, F: southern crabgrass (southern crabgrass [16])	herbicidal effect on L: windgrass (evaluation grade 0-5) (windgrass [17])	herbicidal effect on Chinese sprangletop (D) (Chinese sprangletop)	herbicidal effect on G: green foxtail (evaluation grade 0-5) (green foxtail [18])	also measured
COc1ccccc1-c1sc2c(Cl)cccc2c1-c1c(O)c(C)nn(C)c1=O [4-021]	2 (Herbicidal rate of 20% or more and less than 40%)	2 (Herbicidal rate of 20% or more and less than 40%)	5 (Herbicidal rate of 90% or more (almost completely withered))	0 (Herbicidal rate of 5% or less (almost no effect))	5 (Herbicidal rate of 90% or more (almost completely withered))	0 (Herbicidal rate of 5% or less (almost no effect))	4 (Herbicidal rate of 70% or more and less than 90%)	0 (Herbicidal rate of 5% or less (almost no effect))	0 (Herbicidal rate of 5% or less (almost no effect))	0 (Herbicidal rate of 5% or less (almost no effect))	0 (Herbicidal rate of 5% or less (almost no effect))	1 (Herbicidal rate of 5% or more and less than 20%)	5 (Herbicidal rate of 90% or more (almost completely withered))	3 (Herbicidal rate of 40% or more and less than 70%)	4 (Herbicidal rate of 70% or more and less than 90%)	1 (Herbicidal rate of 5% or more and less than 20%)	0 (Herbicidal rate of 5% or less (almost no effect))	5 (Herbicidal rate of 90% or more (almost completely withered))	4 (Herbicidal rate of 70% or more and less than 90%)	4 (Herbicidal rate of 70% or more and less than 90%)	Herbicidal effect by soil treatment, G: green foxtail (green foxtail [19]): 0 (Herbicidal rate of 5% or less (almost no effect)); Herbicidal effect by soil treatment, R: persian speedwell (persian speedwell [20]): 3 (Herbicidal rate of 40% or more and less than 70%); Herbicidal effect by soil treatment, H: barnyard grass (barnyard grass [21]): 0 (Herbicidal rate of 5% or less (almost no effect)); herbicidal effect on M: velvetleaf (evaluation grade 0-5) (velvetleaf [22]): 2 (Herbicidal rate of 20% or more and less than 40%); Herbicidal effect by soil treatment, O: lambsquarters (lambsquarters [23]): 1 (Herbicidal rate of 5% or more and less than 20%); Herbicidal effect by soil treatment, L: windgrass (windgrass [24]): 0 (Herbicidal rate of 5% or less (almost no effect)); Herbicidal effect by soil treatment, P: chickweed (chickweed [25]): 4 (Herbicidal rate of 70% or more and less than 90%)
CCCOc1ccc(-c2sc3c(Cl)cccc3c2-c2c(O)c(C)nn(C)c2=O)cc1 [4-027]	4 (Herbicidal rate of 70% or more and less than 90%)	5 (Herbicidal rate of 90% or more (almost completely withered))	5 (Herbicidal rate of 90% or more (almost completely withered))	0 (Herbicidal rate of 5% or less (almost no effect))	0 (Herbicidal rate of 5% or less (almost no effect))	3 (Herbicidal rate of 40% or more and less than 70%)	5 (Herbicidal rate of 90% or more (almost completely withered))	0 (Herbicidal rate of 5% or less (almost no effect))	0 (Herbicidal rate of 5% or less (almost no effect))	0 (Herbicidal rate of 5% or less (almost no effect))	0 (Herbicidal rate of 5% or less (almost no effect))	0 (Herbicidal rate of 5% or less (almost no effect))	1 (Herbicidal rate of 5% or more and less than 20%)	4 (Herbicidal rate of 70% or more and less than 90%)	5 (Herbicidal rate of 90% or more (almost completely withered))	5 (Herbicidal rate of 90% or more (almost completely withered))	0 (Herbicidal rate of 5% or less (almost no effect))	3 (Herbicidal rate of 40% or more and less than 70%)	0 (Herbicidal rate of 5% or less (almost no effect))	0 (Herbicidal rate of 5% or less (almost no effect))	Herbicidal effect by soil treatment, G: green foxtail (green foxtail [19]): 0 (Herbicidal rate of 5% or less (almost no effect)); Herbicidal effect by soil treatment, R: persian speedwell (persian speedwell [20]): 1 (Herbicidal rate of 5% or more and less than 20%); Herbicidal effect by soil treatment, H: barnyard grass (barnyard grass [21]): 0 (Herbicidal rate of 5% or less (almost no effect)); herbicidal effect on M: velvetleaf (evaluation grade 0-5) (velvetleaf [22]): 4 (Herbicidal rate of 70% or more and less than 90%); Herbicidal effect by soil treatment, O: lambsquarters (lambsquarters [23]): 2 (Herbicidal rate of 20% or more and less than 40%); Herbicidal effect by soil treatment, L: windgrass (windgrass [24]): 0 (Herbicidal rate of 5% or less (almost no effect)); Herbicidal effect by soil treatment, P: chickweed (chickweed [25]): 5 (Herbicidal rate of 90% or more (almost completely withered))
COc1cc(F)ccc1-c1sc2c(Cl)cccc2c1-c1c(O)c(C)nn(C)c1=O [4-033]	2 (Herbicidal rate of 20% or more and less than 40%)	0 (Herbicidal rate of 5% or less (almost no effect))	5 (Herbicidal rate of 90% or more (almost completely withered))	0 (Herbicidal rate of 5% or less (almost no effect))	3 (Herbicidal rate of 40% or more and less than 70%)	0 (Herbicidal rate of 5% or less (almost no effect))	5 (Herbicidal rate of 90% or more (almost completely withered))	0 (Herbicidal rate of 5% or less (almost no effect))	0 (Herbicidal rate of 5% or less (almost no effect))	0 (Herbicidal rate of 5% or less (almost no effect))	0 (Herbicidal rate of 5% or less (almost no effect))	0 (Herbicidal rate of 5% or less (almost no effect))	0 (Herbicidal rate of 5% or less (almost no effect))	3 (Herbicidal rate of 40% or more and less than 70%)	4 (Herbicidal rate of 70% or more and less than 90%)	2 (Herbicidal rate of 20% or more and less than 40%)	0 (Herbicidal rate of 5% or less (almost no effect))	1 (Herbicidal rate of 5% or more and less than 20%)	2 (Herbicidal rate of 20% or more and less than 40%)	0 (Herbicidal rate of 5% or less (almost no effect))	Herbicidal effect by soil treatment, G: green foxtail (green foxtail [19]): 0 (Herbicidal rate of 5% or less (almost no effect)); Herbicidal effect by soil treatment, R: persian speedwell (persian speedwell [20]): 4 (Herbicidal rate of 70% or more and less than 90%); Herbicidal effect by soil treatment, H: barnyard grass (barnyard grass [21]): 0 (Herbicidal rate of 5% or less (almost no effect)); herbicidal effect on M: velvetleaf (evaluation grade 0-5) (velvetleaf [22]): 3 (Herbicidal rate of 40% or more and less than 70%); Herbicidal effect by soil treatment, O: lambsquarters (lambsquarters [23]): 0 (Herbicidal rate of 5% or less (almost no effect)); Herbicidal effect by soil treatment, L: windgrass (windgrass [24]): 0 (Herbicidal rate of 5% or less (almost no effect)); Herbicidal effect by soil treatment, P: chickweed (chickweed [25]): 4 (Herbicidal rate of 70% or more and less than 90%)
